The record followed here is patent US4798787A, “Peptide antibodies and their use in detecting oncogene products” (Cetus Corporation, priority 1984, dated 1989).

The experiment has as its target T1, p21 protein (v-Ki-ras p21, serine at position 12) (Kirsten murine sarcoma virus, UniProt P01117).
T1 construct: made in house; host or cells: E. coli (plasmid pINIII-ras, gift of M. Inouye, printed 'Inouge')
The experiment is described as follows: Inhibition by nucleotides of anti-p21ser antibody binding to p21 protein under mild denaturation conditions. The settings on record: 10 mM nucleotide. An excerpt:
An alternative explanation is that the antibody binds at some distance from the GTP binding site and yet alters GTP binding by disturbing the tertiary structure of the protein. […] The invention herein is not limited to either explanation.

T1 sequence (P01117 whole entry): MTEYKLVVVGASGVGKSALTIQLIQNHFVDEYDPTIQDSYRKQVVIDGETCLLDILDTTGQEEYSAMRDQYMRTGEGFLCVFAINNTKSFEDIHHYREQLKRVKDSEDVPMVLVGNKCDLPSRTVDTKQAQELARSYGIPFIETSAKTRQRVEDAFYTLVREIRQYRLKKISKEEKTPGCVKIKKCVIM

Take `Nc1ncnc2c1ncn2[C@@H]1O[C@H](COP(=O)(O)OP(=O)(O)OP(=O)(O)O)[C@@H](O)[C@H]1O` [ATP]: the “inhibition of the binding of anti-p21ser antibodies to p21 protein” value is reported as “not”.
As for `Nc1nc2c(ncn2[C@@H]2O[C@H](COP(=O)(O)OP(=O)(O)OP(=O)(O)O)[C@@H](O)[C@H]2O)c(=O)[nH]1` [GTP, guanosine triphosphate], the “inhibition of the binding of anti-p21ser antibodies to p21 protein” value is on record as “substantially inhibit”.
